The IC50 is the concentration that inhibits the measured activity by half. The low end stands for greater potency, the high end for weaker potency. As a reminder, the solubility (kinetic) is the concentration staying in solution when a stock, usually in DMSO, is diluted into the medium. Broadly, the chromatographic logD is a lipophilicity value derived from retention on a column. A higher chromatographic logD goes with higher lipophilicity.

In brackets after ≈: the same amount, converted by molar mass. Where two headings read alike, the source gives them in different places.

We go through twelve compounds from publication PMC8205227 (ACS Infectious Diseases, 2021).

In one data set the target is M. tuberculosis CoaBC (Mycobacterium tuberculosis, UniProt P9WNZ1). Type of data set: binding.
Chain of M. tuberculosis CoaBC (P9WNZ1 whole entry): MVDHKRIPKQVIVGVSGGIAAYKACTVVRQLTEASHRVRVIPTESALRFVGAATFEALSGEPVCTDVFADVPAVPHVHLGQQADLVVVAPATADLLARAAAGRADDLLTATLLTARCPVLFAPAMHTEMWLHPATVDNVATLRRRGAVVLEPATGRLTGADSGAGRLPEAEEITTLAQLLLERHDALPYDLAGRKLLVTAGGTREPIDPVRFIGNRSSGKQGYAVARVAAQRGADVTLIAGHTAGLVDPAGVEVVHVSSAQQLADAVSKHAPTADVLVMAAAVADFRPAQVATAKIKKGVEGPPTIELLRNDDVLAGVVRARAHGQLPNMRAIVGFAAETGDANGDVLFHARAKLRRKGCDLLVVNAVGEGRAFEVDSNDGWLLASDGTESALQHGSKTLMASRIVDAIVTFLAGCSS
The target in a further data set is Mtb CoaB (Mycobacterium tuberculosis, UniProt P9WNZ1). Description: BIOMOL Green end-point pyrophosphate quantification assay (high-throughput screen). It is filed as biochemical.
Chain of Mtb CoaB (P9WNZ1 whole entry): as above
The nature of data set [1]: physchem. The settings on record: kinetic from dmso stock. It is filed as physicochemical. An excerpt: (§1) Compounds were profiled for HepG2 cytotoxicity, mouse liver microsomal clearance, and aqueous solubility, as previously described.[66]
The format of data set [2] is in vitro ADME, mouse. The settings on record: microsomes.
Excerpt: as §1

For the next data set, the system named is HepG2 cells. Description: HepG2 cytotoxicity. The settings on record: Homo sapiens. Type of data set: cell-based.
Excerpt: as §1

Data set [3] in a line: physchem. Type of data set: physicochemical. From the text:
Table 1 SAR and In Vitro Profiling of Modifications to Compound 1a ^a | column: CHI LogD

For another data set, the system named is Mtb H37RvMA. Description: microbe, parasite or virus in culture. It is filed as cell-based, Mycobacterium tuberculosis. The conditions noted are these: Mycobacterium tuberculosis, H37RV; read-out: Mtb H37Rv MIC.
A further data set relates to coaBC Tet-OFF hypomorph. Description: microbe, parasite or virus in culture. The conditions noted are these: increasing ATc; inhibitor up to 125 μM. It is filed as cell-based, Mycobacterium tuberculosis.
Setting [4] is: BIOMOL Green pyrophosphate quantification assay.

On to `Nc1ccn([C@@H]2O[C@H](COP(=O)(O)O)[C@@H](O)[C@H]2O)c(=O)n1` [CMP, cytidine-5′-monophosphate], for which the “Thermal shift relative to CoaBC, Substrate” value on M. tuberculosis CoaBC is 1.5 °C.
With `Cc1ccc(Sc2c(C)nn(-c3ccccc3)c2O)cc1` [Compound 1b, 4-(4-Methylphenyl)sulfanyl-5-methyl-2-phenyl-pyrazol-3-ol], the IC50 is 3.3 µM against Mtb CoaB (setting [4]) and above 50 µM in the data set on HepG2 cells. Moreover, the solubility (kinetic) in “physchem [1]” turned out to be 156 µM (≈ 46.2 µg/mL). Besides, the “Mouse Cli (intrinsic clearance)” value in data set [2] (mouse) is 1.1 mL/min/g. For the same compound, the chromatographic logD in “physchem [3]” stood at 0.7. The MIC with Mtb H37RvMA was above 125 µM.
On to `Cc1nn(-c2ccccc2)c(O)c1Sc1ccc(Cl)cc1` [Compound 1c, 4-(4-Chlorophenyl)sulfanyl-5-methyl-2-phenyl-pyrazol-3-ol], for which the half-inhibitory concentration (IC50) against Mtb CoaB (setting [4]) is 4 µM; with HepG2 cells it was above 50 µM. For the same compound, the solubility (kinetic) in the data set “physchem [1]” was 110 µM (≈ 34.8 µg/mL). The “Mouse Cli (intrinsic clearance)” value in data set [2] (mouse) is 2.2 mL/min/g. The compound further yielded a chromatographic logD in the data set “physchem [3]” of 0.7. The MIC in the data set with Mtb H37RvMA was above 125 µM.
Consider `Cc1nn(-c2ccccc2)c(O)c1Sc1ccc(Cl)cc1Cl` [Compound 1d], for which the half-inhibitory concentration (IC50) was 3.2 µM at Mtb CoaB (setting [4]) and above 50 µM in the data set with HepG2 cells. In addition, in the data set with Mtb H37RvMA, the MIC is above 125 µM.
Regarding `COc1ccc(Sc2c(C)nn(-c3ccccc3)c2O)cc1` [Compound 1e, 4-(4-Methoxyphenyl)sulfanyl-5-methyl-2-phenyl-pyrazol-3-ol], on Mtb CoaB, the “Fold increase in potency against Mtb CoaB relative to 1a” value is reported as 4 fold. For the same compound, the IC50 is 2.8 µM at Mtb CoaB (setting [4]) and above 50 µM with HepG2 cells. In addition, the MIC with Mtb H37RvMA is above 125 µM.
On Mtb CoaB (setting [4]), `Cc1nn(-c2ccc(Cl)cc2)c(O)c1Sc1ccc(Cl)cc1` [Compound 1g, 2-(4-Chlorophenyl)-4-(4-chlorophenyl)sulfanyl-5-methyl-pyrazol-3-ol] showed a concentration for half-maximal inhibition (IC50) of 3.5 µM. Further, the kinetic solubility in “physchem [1]” was determined as 110 µM (≈ 38.6 µg/mL). For the same compound, the “Mouse Cli (intrinsic clearance)” value in data set [2] (mouse) stood at 2.8 mL/min/g. Also, the chromatographic logD in the data set “physchem [3]” came to 1.5. In addition, the “Effect of ATc-mediated coaBC silencing on susceptibility of the coaBC hypomorph (hypersensitization)” value (from here on “Effect of ATc-mediated coaBC silencing”) in the data set on coaBC Tet-OFF hypomorph was “lack of hypersensitization”. Moreover, the MIC in the data set with Mtb H37RvMA was above 125 µM.
`Cc1nn(-c2cccc(Cl)c2)c(O)c1Sc1ccc(Cl)cc1` [Compound 1h, 2-(3-Chlorophenyl)-4-(4-chlorophenyl)sulfanyl-5-methyl-pyrazol-3-ol] gave an IC50 on Mtb CoaB (setting [4]) of 2.3 µM. In “physchem [1]”, this compound yielded a kinetic solubility of 55 µM (≈ 19.3 µg/mL). In addition, in data set [2] (mouse), the “Mouse Cli (intrinsic clearance)” value is 2.6 mL/min/g. Moreover, the chromatographic logD in “physchem [3]” was 1.5. In addition, the “Effect of ATc-mediated coaBC silencing” value in the data set on coaBC Tet-OFF hypomorph is “lack of hypersensitization”. Besides, the MIC in the data set on Mtb H37RvMA was above 125 µM.
Take `Cc1nn(-c2ccc(Cl)cn2)c(O)c1Sc1ccc(Cl)cc1` [Compound 1i]: the results for the IC50 at Mtb CoaB (setting [4]) and in the data set with HepG2 cells were above 50 µM and 40 µM, respectively. On Mtb CoaB (setting [4]), the “Mtb CoaB IC50” value is given as “complete loss of inhibitory activity”. The compound also showed a solubility (kinetic) in “physchem [1]” of 79 µM (≈ 27.8 µg/mL). Besides, the “Mouse Cli (intrinsic clearance)” value in data set [2] (CD1, mouse) is below 0.5 mL/min/g. In addition, in “physchem [3]”, the chromatographic logD was found to be 3.7. Further, the “Effect of ATc-mediated coaBC silencing” value in the data set with coaBC Tet-OFF hypomorph is recorded as “lack of hypersensitization”. The MIC in the data set on Mtb H37RvMA is 6.2 µM (≈ 2.18 µg/mL).
Take `N[C@@H](CS)C(=O)O` [L-cysteine]: the “Thermal shift relative to CoaBC, Substrate” value at M. tuberculosis CoaBC turned out to be 0.5 °C.
With `CC(C)(COP(=O)(O)O)[C@@H](O)C(=O)NCCC(=O)O` [PPA, 4′-phosphopantothenate], the “Thermal shift relative to CoaBC, Substrate” value at M. tuberculosis CoaBC came out at 3.5 °C.
As to `NNC(=O)c1ccncc1` [isoniazid, reference compound], the “Effect of ATc-mediated coaBC silencing” value in the data set with coaBC Tet-OFF hypomorph was “did not render the coaBC hypomorph more susceptible”.
As for `CO[C@H]1/C=C/O[C@@]2(C)Oc3c(C)c(O)c4c(O)c(c(/C=N/N5CCN(C)CC5)c(O)c4c3C2=O)NC(=O)/C(C)=C\C=C\[C@H](C)[C@H](O)[C@@H](C)[C@@H](O)[C@@H](C)[C@H](OC(C)=O)[C@@H]1C` [rifampicin, reference compound], the “Effect of ATc-mediated coaBC silencing” value in the data set on coaBC Tet-OFF hypomorph is “did not render the coaBC hypomorph more susceptible”.
